Source: patent US12043602B2, “Fendiline derivatives” (The Board of Regents of the University of Texas System, priority 2019, dated 2024)
One block for each compound: values may come before it.

Experiments:
[1] = molecular target: T1, mGFP-K-RASG12V (Homo sapiens (Human), UniProt P01116, G12V); details: versus compound 6; background statement; cited from earlier work
[2] = molecular target: T1, mGFP-K-RASG12V; assay: K-Ras mislocalization assay (confocal microscopy, Manders coefficient); assay type: cell-based; parameters: key to Emax: Manders coefficient: fraction of mCherry-CAAX co-localizing with GFP-K-Ras; details: MDCK cells; for Emax: maximal effect, Manders coefficient
How it was run: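 MDCK cells stably co-expressing mGFP-K-RASG12V and mCherry-CAAX (endomembrane marker) treated with compound or 0.1% DMSO for 48 h, fixed in 4% paraformaldehyde, imaged by confocal microscopy. Mislocalization quantified as the fraction of mCherry-CAAX co-localizing with mGFP-K-RASG12V (Manders coefficient) after 8-bit thresholding.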

[3] = test system: Ishikawa (WT) endometrial tumor cells; assay: CyQUANT proliferation assay; assay type: cell-based; parameters: key to IC50 proliferation Ishikawa (WT): NE—Not efficacious
Experimental: (§1) Madine Darby Canine Kidney epithelial cells (MDCK) stably co-expressing mGFP-tagged full length oncogenic mutant K-Ras (GFP—K-RASG12V) or mGFP-LactC2 (peptide probe for phosphatidylserine) and mCherry-tagged to the amino acids 179-189 of H-RasC181S, C184S (mCherry-CAAX, localizes primarily to endomembranes) were grown in DMEM-high glucose/sodium pyruvate/10% FBS. The medium was supplemented with 1× Penicillin/Streptomycin for fluorescence microscopy assays, to avoid any microbial contamination from the test compounds added. KLE and Hec50 cells were maintained in DMEM-F-12 medium supplemented with 10% FBS. Hec-1A and Hec-1B cells were grown in McCoy's 5a medium supplemented with 10% FBS. ESS-1 cells were grown in RPMI 1640 medium supplemented with 20% FBS. MPanc96 cells were grown in DMEM supplemented with 10% FBS, MiaPaCa-2 cells in DMEM supplemented with 10% FBS and 2.5% horse serum and all other cell lines were grown in RPMI 1640 supplemented with 10% FBS. All cancer cell media were supplemented with ×Penicillin/Streptomycin. All cell lines were grown at 37° C. with 5% CO2.
(§2) Cells were seeded in 96-well plates. After 24 h, fresh growth medium supplemented with 0.1% vehicle (DMSO), or various concentrations of drugs was added and cells were grown for 72 h. Cell numbers were quantified using the CyQUANT® Cell Proliferation Assay Kit (Molecular Probes, Life Technologies), according to the manufacturer's protocol. Fluorescence measurement was used as a measure of live cell number.

[4] = test system: mutant KRAS expressing cancer cells; details: at 30 μM; background statement; cited from earlier work
[5] = test system: Hec1B (Mut) endometrial tumor cells; assay: CyQUANT proliferation assay; assay type: cell-based; details: Table 11, endometrial; read-out: IC50 (μM) Hec1B (Mut)
Experimental: as §1, §2

[6] = test system: NCI-H1299 (WT) lung tumor cells; assay: CyQUANT proliferation assay; assay type: cell-based; details: Table 11, lung; read-out: IC50 (μM) NCI H1299 (WT)
Experimental: as §1, §2

[7] = test system: SK-CO-1 (Mut) colon tumor cells; assay: CyQUANT proliferation assay; assay type: cell-based; details: Table 11, colon; read-out: IC50 (μM) SK-CO-1 (Mut)
Experimental: as §1, §2

[8] = test system: Hec1A (Mut) endometrial tumor cells; assay: CyQUANT proliferation assay; assay type: cell-based; details: Table 11, endometrial; read-out: IC50 (μM) Hec1A (Mut)
Experimental: as §1, §2

[9] = test system: CaCO-2 (WT) colon tumor cells; assay: CyQUANT proliferation assay; assay type: cell-based; details: Table 11, colon; read-out: IC50 (μM) Caco-2 (WT)
Experimental: as §1, §2

[10] = test system: MiaPaCa-2 (Mut) pancreatic tumor cells; assay: CyQUANT proliferation assay; assay type: cell-based; details: Table 11, pancreatic; read-out: IC50 (μM) MiaPaCa-2 (Mut)
Experimental: as §1, §2

[11] = test system: NCI H522 (WT) lung tumor cells; assay: CyQUANT proliferation assay; assay type: cell-based; parameters: key to IC50 proliferation NCI H522 (WT): NE—Not efficacious
Experimental: as §1, §2

[12] = test system: MPanc96 (Mut) pancreatic tumor cells; assay: CyQUANT proliferation assay; assay type: cell-based; details: Table 11, pancreatic; read-out: IC50 (μM) MPanc96 (Mut)
Experimental: as §1, §2

[13] = test system: MOH (Mut) pancreatic tumor cells; assay: CyQUANT proliferation assay; assay type: cell-based; parameters: key to IC50 proliferation MOH (Mut): NE—Not efficacious
Experimental: as §1, §2

[14] = test system: NCI-H23 (Mut) lung tumor cells; assay: CyQUANT proliferation assay; assay type: cell-based; parameters: key to IC50 proliferation NCI-H23 (Mut): NE—Not efficacious
Experimental: as §1, §2

[15] = test system: NCI H1975 (WT) lung tumor cells; assay: CyQUANT proliferation assay; assay type: cell-based; details: Table 11, lung
Experimental: as §1, §2

[16] = test system: MDCK cells co-expressing GFP-K-RASG12V and mCherry-CAAX; assay: Cytotoxicity in mislocalization screen (death of all cells in well); details: drug caused death of all cells in well at 30 μM
[17] = test system: BxPC-3 (WT) pancreatic tumor cells; assay: CyQUANT proliferation assay; assay type: cell-based; parameters: key to IC50 proliferation BxPC-3 (WT): NE—Not efficacious
Experimental: as §1, §2

[18] = test system: KLE (WT) endometrial tumor cells; assay: CyQUANT proliferation assay; assay type: cell-based; parameters: key: NE—Not efficacious; details: 72 h
Experimental: as §1, §2

[19] = test system: SW1116 (Mut) colon tumor cells; assay: CyQUANT proliferation assay; assay type: cell-based; parameters: key: NE—Not efficacious; details: 72 h
Experimental: as §1, §2

[20] = test system: H1925 (WT) lung tumor cells; assay: CyQUANT proliferation assay; assay type: cell-based; parameters: key: NE—Not efficacious; details: 72 h
Experimental: as §1, §2

[21] = test system: HPAC (Mut) pancreatic tumor cells; assay: CyQUANT proliferation assay; assay type: cell-based; parameters: key to IC50 proliferation HPAC (Mut): NE—Not efficacious; details: 72 h
Experimental: as §1, §2

Compound: COc1ccc([C@@H](C)N(CC=C(c2ccccc2)c2ccccc2)CC=C(c2ccccc2)c2ccccc2)cc1 [Compound 7, reference compound]
fold increased potency [1]: 10 fold
IC50 ([2]; 48 h treatment, read-out: IC50 (μM), KRASG12V mislocalization): 0.5 µM
Emax ([2]; 48 h): 0.74 ± 0.03
IC50 ([3]; Table 11, endometrial, read-out: IC50 (μM) Ishikawa (WT)): > 30 µM
capability to kill mutant KRAS expressing cancer cells [4]: no capability to kill
IC50 [5]: > 30 µM
IC50 [6]: > 30 µM
IC50 [7]: > 30 µM
IC50 [8]: > 30 µM
IC50 [9]: > 30 µM
IC50 [10]: > 30 µM
IC50 ([11]; Table 11, lung, read-out: IC50 (μM) NCI H522 (WT)): > 30 µM
IC50 [12]: > 30 µM
IC50 ([13]; Table 11, pancreatic, read-out: IC50 (μM) MOH (Mut)): > 30 µM
IC50 ([14]; Table 11, lung, read-out: IC50 (μM) NCI H23 (Mut)): > 30 µM
IC50 [15]: > 30 µM
Cytotoxic at 30 μM [16]: did not show any cytotoxic and No
IC50 ([17]; Table 11, pancreatic, read-out: IC50 (μM) BxPC-3 (WT)): > 30 µM

EC50 ([2]; batch 4 compounds, 48 h, title calls it IC50, read-out: EC50): 0.945 µM
Emax ([2]; 48 h): 0.893
IC50 proliferation Ishikawa (WT) ([3]; 72 h): NE
IC50 proliferation KLE (WT) [18]: NE
IC50 proliferation MOH (Mut) ([13]; 72 h): NE
IC50 proliferation NCI-H23 (Mut) ([14]; 72 h): NE
IC50 proliferation HPAC (Mut) [21]: NE
IC50 proliferation BxPC-3 (WT) ([17]; 72 h): NE
Compound: CN1CCN(CCN(CC=C(c2ccccc2)c2ccccc2)[C@@H]2C[C@H]2c2ccccc2)CC1 [NY0590, (1R,2S)-N-(3,3-diphenylallyl)-N-(2-(4-methylpiperazin-1-yl)ethyl)-2-phenylcyclopropan-1-amine]
Potency proliferation SW1116 (Mut) [19]: NE
Potency proliferation H1925 (WT) [20]: NE
IC50 proliferation NCI H522 (WT) ([11]; 72 h): NE
Cytotoxic at 30 μM [16]: Yes
